What is called IC50 is the midpoint of a concentration-inhibition curve. Higher therefore signals weaker potency.

The record followed here is BindingDB's records for patent US20240025919 (Genentech, 2024).

One test addresses GTPase KRas [G12D] (Homo sapiens, UniProt P01116, G12D). Description: KRAS G12D LoEnz Biochemical Assay. As to the method:
Biochemical compound potencies are assessed by evaluating inhibition of SOS1I-mediated nucleotide exchange in KRAS […]. In this assay, the SOS1-promoted exchange of fluorescently-labeled GDP (BOPIDY-GDP) is monitored by time-resolved fluorescence resonance energy transfer (TR-FRET). Compounds solubilized in DMS0 are dispensed as concentration series into 384-well white assay plates. A preformed complex of biotin-tagged recombinant human KRAS (0.06 nM mutant G1 2D) and 0.06 nM terbium-labeled streptavidin (CisBIO) prepared in 10 uL/well assay buffer (20 mM HEPES, pH 7.5, 50 mM NaCl, 10 mMMMgCl2, 0.0100 Tween-20 and 1 mM dithiothreitol) is added and allowed to incubate for 10-minutes at room temperature. The reaction is initiated with the addition of 5 uL 300 nM recombinant human SOS1 and 300 nM BODIPY-GDP in assay buffer. After a 120-minute incubation, the fluorescence is measured with excitation at 337 nm and emission at 490 and 520 nm. The TR-FRET ratio is determined as the fluorescence at 520 nm divided by the fluorescence at 490 nm multiplied by 10,000. The results are normalized to percent inhibition based on control samples: DMSO (0% inhibition) and control compound at a concentration that inhibits completely (100% inhibition).

The target in the next test is GTPase KRas (Homo sapiens, UniProt P01116). Description: KRAS WT Biochemical Assay. As to the method: Biochemical compound potencies are assessed by evaluating inhibition of SOS1-mediated nucleotide exchange in KRAS WT. In this assay, the SOS1-promoted exchange of fluorescently-labeled GDP (BOPIDY-GDP) is monitored by time-resolved fluorescence resonance energy transfer (TR-FRET). Compounds solubilized in DMSO are dispensed as concentration series into 384-well white assay plates. A preformed complex of 0.06 nM biotin-tagged recombinant human KRAS WT, 15 nM GDP and 0.06 nM terbium-labeled streptavidin (CisBIO) prepared in 10 uL/well assay buffer (20 mM HEPES, pH 7.5, 50 mM NaCl, 10 mM MgCl2, 0.01% Tween-20 and 1 mM dithiothreitol) is added and allowed to incubate for 10-minutes at room temperature. The reaction is initiated with the addition of 5 uL 300 nM recombinant human SOS1 and 300 nM BODIPY-GDP in assay buffer. After a 120-minute incubation, the fluorescence is measured with excitation at 337 nm and emission at 490 and 520 nm.
GTPase KRas, sequence (P01116 whole entry): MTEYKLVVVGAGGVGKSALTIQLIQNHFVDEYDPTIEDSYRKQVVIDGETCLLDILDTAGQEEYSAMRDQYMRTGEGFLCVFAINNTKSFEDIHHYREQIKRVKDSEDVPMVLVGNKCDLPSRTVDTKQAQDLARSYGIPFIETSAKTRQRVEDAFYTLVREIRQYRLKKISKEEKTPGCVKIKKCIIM

GTPase KRas [G12D], sequence (P01116 whole entry G12D): as the sequence (P01116 whole entry) above, with G12D counted along it

`C#Cc1c(F)ccc2cccc(-c3nc4c5c(nc(OCC67CCN6CC(F)(F)C7)nc5c3F)N3C[C@H]5CC[C@H](N5)[C@H]3[C@H](C)O4)c12` (some centres undefined) [US20240025919, Compound 22] gave a half-maximal inhibitory concentration (IC50) against GTPase KRas [G12D] of 2.99 nM.
As to `Fc1c(-c2cccc3cccc(Cl)c23)nc2c3c(nc(OC[C@@]45CCCN4C[C@H](F)C5)nc13)N1C[C@H]3CC[C@H](N3)[C@H]1CO2` [US20240025919, Compound 2], the IC50 at GTPase KRas is 922 nM; against GTPase KRas [G12D], 15.2 nM.
For the compound `C[C@@H]1Oc2nc(-c3cc(N)c(F)c(F)c3CC(F)F)c(F)c3cc(OC[C@@H]4CC[C@H]5COCCN54)nc(c23)N2C[C@H]3CC[C@H](N3)[C@@H]12` [US20240025919, Compound 158], on GTPase KRas [G12D], the 50% inhibitory concentration (IC50) is 3.39 nM.
